# Laboratory results reported in US5658938A, “Substituted 1H-imidazoles” (U C B S.A., priority 1994, dated 1997).
# Read-outs that look alike come from different tables or passages of the source.
# Key:
# [1] = tested on: α-adrenergic receptors; details: cited from earlier work
# [2] = tested on: coronary occlusion in the rat; test: Anti-ischemic and anti-hypertensive activity: coronary occlusion in the anesthetized rat (elevation of the T wave of the electrocardiogram, arterial pressure); format: in vivo, male albino rat of the Sprague-Dawley strain; details: Rattus norvegicus, iv
# Description: The cardiac anti-ischemic activity of compounds manifests itself by their capacity to oppose the elevation of the T wave of the electrocardiogram, induced by a coronary occlusion in the rat. Continuous monitoring of the arterial pressure also enables to reveal the anti-hypertensive effects. The animal used for the test is a male albino rat of the Sprague-Dawley strain, weighing 220 to 280 g. On the day of the experiment, the animal is anesthetized by intraperitoneal administration of pentobarbital (60 mg/kg), then placed under endotracheal intubation. A ligature system is fitted around the descending left anterior coronary artery according to the procedure of Johnston et el. (Can. J. Physiol. Pharmacol., 61 (1983), 1340-1353). After closing the thorax, three electrodes are arranged on the body of the animal ("V4" thoracic derivation), in order to continuously record the shape of the electrocardiogram signal (in particular the T wave). Catheters are introduced into the right carotid artery and the right jugular vein to measure the arterial pressure and to administer intravenously the compound tested or the vehicle solution. Four 45 second coronary occlusions are performed, separated by episodes of reperfusion of 30, 35 and 30 minutes respectively. The compound to be studied or the vehicle are administered intravenously in bolus, 30 minutes before occlusion 3. The T electrocardiographic signal and the arterial pressure are continuously measured during the entire experiment.
# The effects of the compounds according to the invention are quantified by comparing the amplitude of the elevation of the T wave at occlusions 3 and 4 (that is 30 minutes and 60 minutes after administration) with its value at occlusion 2 (that is before administration).
# the second column indicates the dose of compound administered, expressed in mole/kg;
# the third and the fourth columns indicate the anti-ischemic effect caused by administering the compound tested. The anti-ischemic effect represents the reduction in the elevation of the T wave caused by coronary occlusions 3 and 4, expressed in % with respect to occlusion 2, before administration of the compound (ΔT3 and ΔT4 respectively);
# the fifth and sixth columns indicate the anti-hypertensive effect caused by administration of the compound tested. The anti-hypertensive effect is expressed as the maximum lowering of arterial pressure, measured a) between 5 and 30 minutes, and b) between 30 and 60 minutes after intravenous injection of the compound tested (ΔPa and ΔPb respectively). This lowering is expressed in % with respect to the value measured before injection.
# [3] = molecular target: T1, postsynaptic α1 -adrenergic receptor (Rattus norvegicus, UniProt P23944); test: Postsynaptic α1-antagonist activity: inhibition of norepinephrine-induced contraction of the isolated aorta of the rat; details: read-out: ED30 (concentration which causes 30% inhibition of the contraction induced by norepinephrine)
# T1 construct: isolated aorta of the rat; from tissue; host or cells: rat isolated aorta
# T1 sequence (P23944 1-561): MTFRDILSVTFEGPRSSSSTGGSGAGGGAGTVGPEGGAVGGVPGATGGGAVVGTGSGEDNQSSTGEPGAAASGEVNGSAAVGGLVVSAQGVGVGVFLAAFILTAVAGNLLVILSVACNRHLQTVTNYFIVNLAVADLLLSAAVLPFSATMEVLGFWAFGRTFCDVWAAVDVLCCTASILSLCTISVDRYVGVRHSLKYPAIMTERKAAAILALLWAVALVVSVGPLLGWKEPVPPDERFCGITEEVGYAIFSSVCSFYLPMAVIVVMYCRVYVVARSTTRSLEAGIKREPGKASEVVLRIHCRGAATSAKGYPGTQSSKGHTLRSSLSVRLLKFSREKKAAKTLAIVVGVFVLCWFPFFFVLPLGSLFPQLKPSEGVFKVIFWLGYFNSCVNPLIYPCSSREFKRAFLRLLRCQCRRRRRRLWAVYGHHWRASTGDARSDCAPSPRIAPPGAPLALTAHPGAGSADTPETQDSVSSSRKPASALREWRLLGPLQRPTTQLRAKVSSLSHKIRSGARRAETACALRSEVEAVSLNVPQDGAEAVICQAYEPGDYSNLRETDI
# Description: A non selective α-agonist substance such as norepinephrine induces a sustained contraction of the isolated aorta of the rat (J. M. Van Rossum Arch. Int. Pharmacodyn. 143, (1963), 299-330). This contraction can be inhibited by α1 -adrenergic blocking substances such as prazosin. In this test, a control contraction is carried out with norepinephrine at 3.2×10^-8 mole/l. After washing and stabilizing the preparation, the compound to be tested is added to the bath. Norepinephrine is added 5 minutes after the compound tested, and inhibition of the contraction induced by norepinephrine is measured. Next, inhibition of the contraction induced by norepinephrine is evaluated a second and third time in the presence of increasing concentrations of the compound tested.
# [4] = tested on: male NMRI mice; test: Toxicity, Irwin's test; format: in vivo; details: intraperitoneal
# Description: The toxicity of the compounds of the invention has been determined in male NMRI mice by means of Irwin's test (S. Irwin, Psychopharmacologia (Berl.), 13, (1968), 222-257).
# Progressive doses of the product studied are administered intraperitoneally to groups of three mice until a lethal dose is reached (dose causing the death of two out of three animals in 48 hours). It follows from this Table that the compounds of the invention are not very toxic.
# [5] = tested on: presynaptic α2 -adrenergic receptors; test: Inhibition of the contraction of the electrically stimulated guinea pig ileum (presynaptic α2-agonist activity); details: guinea pig ileum longitudinal muscle strips, electrical stimulation
# Description: Longitudinal muscle strips attached to an isometric strain gauge are suspended in Tyrode's solution and are stretched under a tension of 1 g (G. M. Drew, Brit. J. Pharmacol. 64, (1978), 293-300; M. Andrejak et al., Naunyn-Schmiedeberg's Arch. Pharmacol. 314, (1980), 83-87).
# Electrical stimulation of the parasympathetic nerves associated with the ileum fragments causes a contraction of the muscle. This contraction is reduced in the presence of a presynaptic α2 -agonist and the magnitude by which the contraction is reduced depends on the concentration of the agonist used. This effect is antagonised by the simultaneous presence of an α2 -antagonist such as alpha-yohimbine.
# The IC30 concentration (in mole/l) that reduces by 30% the intensity of the contraction of the muscle is determined.
# [6] = 0.5 h, read-out: ΔPa (maximum lowering of arterial pressure)
# [7] = 0.5 h, read-out: ΔT3 (anti-ischemic effect: change in elevation of the T wave, occlusion 3 vs occlusion 2)
# [8] = 1 h, read-out: ΔPb (maximum lowering of arterial pressure)
# [9] = 1 h, read-out: ΔT4 (anti-ischemic effect: change in elevation of the T wave, occlusion 4 vs occlusion 2)
Compound,"affinity towards α-adrenergic receptors, in words [1]","change in vivo at 3 µmol/kg [2, 6] [%]","change in vivo at 3 µmol/kg [2, 7] [%]","change in vivo at 3 µmol/kg [2, 8] [%]","change in vivo at 3 µmol/kg [2, 9] [%]",IC30 [3] [nM],Lethal dose (dose causing the death of two out of three animals in 48 hours) [4] [mg/kg],IC30 (concentration that reduces by 30% the intensity of the contraction of the muscle) [5] [nM],"change in vivo at 1 µmol/kg [2, 6] [%]","change in vivo at 1 µmol/kg [2, 7] [%]","change in vivo at 1 µmol/kg [2, 8] [%]","change in vivo at 1 µmol/kg [2, 9] [%]"
"CC1(c2c[nH]cn2)CCCc2ccccc21 (stereo not shown) [4-(1,2,3,4-tetrahydro-1-methyl-1-naphthalenyl)-1H-imidazole]",slight affinity,,,,,,,,,,,
"Cl.Oc1cccc2c1CCCC2c1c[nH]cn1 (stereo not shown) [Compound F, 5,6,7,8-tetrahydro-5-(1H-imidazol-4-yl)-1-naphthalenol hydrochloride]",,-32,-64,-36,-59,230,214.3,3.7,,,,
"COc1cc2c(cc1OC)C(c1c[nH]cn1)CCC2 (stereo not shown) [Compound J, 4-(1,2,3,4-tetrahydro-6,7-dimethoxy-1-naphthalenyl)-1H-imidazole]",,,,,,2900,258.3,130,-23,-31,-16,-29
"Cc1cccc2c1CCCC2c1c[nH]cn1 (stereo not shown) [Compound B, 4-(1,2,3,4-tetrahydro-5-methyl-1-naphthalenyl)-1H-imidazole]",,-33,-48,-16,-29,33,> 67.9,0.88,,,,
